Results on 23 molecules are retold here after patent US20230123856A1, “5-FLUORONICOTINAMIDE DERIVATIVES AND USES THEREOF” (Tenaya Therapeutics, Inc., priority 2019, published 2023).

The assay deals with T1, HDAC6 (Homo sapiens, UniProt Q9UBN7).
T1 sequence (Q9UBN7 1-1215): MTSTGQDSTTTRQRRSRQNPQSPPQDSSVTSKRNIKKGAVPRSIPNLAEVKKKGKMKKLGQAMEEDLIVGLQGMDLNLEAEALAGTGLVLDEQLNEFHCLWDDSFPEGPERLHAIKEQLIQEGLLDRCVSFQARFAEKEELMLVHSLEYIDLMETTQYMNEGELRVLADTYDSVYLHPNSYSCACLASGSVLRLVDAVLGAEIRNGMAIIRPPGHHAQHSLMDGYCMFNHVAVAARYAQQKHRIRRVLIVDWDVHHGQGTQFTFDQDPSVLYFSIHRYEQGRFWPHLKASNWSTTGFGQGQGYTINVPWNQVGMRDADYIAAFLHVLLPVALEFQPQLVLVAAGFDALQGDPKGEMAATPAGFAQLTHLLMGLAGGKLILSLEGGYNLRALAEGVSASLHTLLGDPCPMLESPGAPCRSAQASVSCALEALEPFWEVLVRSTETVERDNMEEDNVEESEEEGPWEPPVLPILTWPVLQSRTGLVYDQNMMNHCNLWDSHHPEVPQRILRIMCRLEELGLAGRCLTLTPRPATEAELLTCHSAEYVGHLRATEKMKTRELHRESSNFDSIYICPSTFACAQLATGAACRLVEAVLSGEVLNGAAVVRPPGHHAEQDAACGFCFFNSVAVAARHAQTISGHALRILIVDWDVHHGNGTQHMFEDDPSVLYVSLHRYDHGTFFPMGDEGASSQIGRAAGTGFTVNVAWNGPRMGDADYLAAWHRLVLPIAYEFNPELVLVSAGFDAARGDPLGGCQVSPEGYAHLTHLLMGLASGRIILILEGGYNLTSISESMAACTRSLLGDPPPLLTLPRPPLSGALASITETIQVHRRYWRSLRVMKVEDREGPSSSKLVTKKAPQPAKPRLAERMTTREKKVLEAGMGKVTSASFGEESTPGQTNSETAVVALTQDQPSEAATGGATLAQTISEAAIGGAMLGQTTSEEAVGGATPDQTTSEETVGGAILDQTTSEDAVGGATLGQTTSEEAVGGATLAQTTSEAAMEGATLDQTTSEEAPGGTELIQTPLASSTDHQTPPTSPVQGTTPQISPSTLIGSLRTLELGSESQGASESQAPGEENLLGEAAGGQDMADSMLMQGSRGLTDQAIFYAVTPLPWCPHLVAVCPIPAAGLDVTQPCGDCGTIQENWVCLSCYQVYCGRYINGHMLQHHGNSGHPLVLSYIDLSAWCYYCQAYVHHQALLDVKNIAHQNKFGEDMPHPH
Briefly: Biochemical luminescent HDAC-Glo I/II assay, HDAC6. To be noted: recombinant HDAC6 protein, HDAC-Glo I/II luminescent substrate.
As usually defined, the IC50 is the concentration needed to halve the response being measured. Take `O=C(NO)c1cnc(NC2(c3ccccn3)CCC2)c(F)c1` [Compound I-37]: the IC50 was 2.18 nM. In the case of `CO[C@H]1COC[C@@H]1Nc1ncc(C(=O)NO)cc1F` [Compound I-38] it was 5.67 nM; in that of `COCC1(Nc2ncc(C(=O)NO)cc2F)CC(F)(F)C1` [Compound I-39], 1.12 nM. In the case of `CCC1(Nc2ncc(C(=O)NO)cc2F)COC1` [Compound I-40] it was 3.36 nM. As for `O=C(NO)c1cnc(NC2(C3CC3)CC2)c(F)c1` [Compound I-41], the figure is 3.97 nM; as for `CN1CC[C@H](Nc2ncc(C(=O)NO)cc2F)C1=O` [Compound I-42A], 34.3 nM; as for `CN1CC[C@@H](Nc2ncc(C(=O)NO)cc2F)C1=O` [Compound I-42B], 41.7 nM. For `O=C(NO)c1cnc(N[C@H]2CCNC2=O)c(F)c1` [Compound I-43A], the IC50 was found to be 51.1 nM.

As to `O=C(NO)c1cnc(N[C@@H]2CCNC2=O)c(F)c1` [Compound I-43B], the IC50 stood at 25.7 nM.

With `COCCC1(Nc2ncc(C(=O)NO)cc2F)CC1` [Compound I-44], the IC50 was found to be 4.71 nM. As for `O=C(NO)c1cnc(NC2(c3ncccc3F)CC2)c(F)c1` [Compound I-45, 5-fluoro-6-{[1-(3-fluoropyridin-2-yl)cyclopropyl]amino}-N-hydroxypyridine-3-carboxamide], the IC50 came to 6.51 nM. In the case of `O=C(NO)c1cnc(NC2(c3ncccn3)CC2)c(F)c1` [Compound I-46, 5-fluoro-N-hydroxy-6-((1-(pyrimidin-2-yl)cyclopropyl)amino)nicotinamide] it was 29.2 nM; in that of `CN1Cc2ccccc2N(Cc2ncc(C(=O)NO)cc2F)C1=O` [Compound I-47], 4.36 nM; in that of `O=C(NO)c1cnc(Cn2c3c(c4ccccc42)S(=O)(=O)CC3)c(F)c1` [Compound I-48], 2.27 nM. In the case of `O=C(NO)c1cnc(Cn2c(C(F)(F)F)nc3ccccc32)c(F)c1` [Compound I-49] it was 5.11 nM; in that of `Cc1cc2cccnc2n1Cc1ncc(C(=O)NO)cc1F` [Compound I-50], 2.98 nM. In the case of `Cc1c(C)n(Cc2ncc(C(=O)NO)cc2F)c2ncccc12` [Compound I-51] it was 1.94 nM; in that of `COC(=O)N(Cc1ncc(C(=O)NO)cc1F)c1ncccc1O` [Compound I-52], 4.29 nM; in that of `Cc1nc2cccnc2n1Cc1ncc(C(=O)NO)cc1F` [Compound I-53], 8.69 nM. On to `O=C(NO)c1cnc(Cn2c(N3CCOCC3)nc3ccccc32)c(F)c1` [Compound I-54], for which the half-inhibitory concentration (IC50) was 80.3 nM.

Turning to `O=C(NO)c1cnc(Cn2ccc3cc(C(=O)NC4CC4)cnc32)c(F)c1` [Compound I-55, N-cyclopropyl-1-((3-fluoro-5-(hydroxycarbamoyl)pyridin-2-yl)methyl)-1H-pyrrolo[2,3-b]pyridine-5-carboxamide], the IC50 is 3.88 nM. As for `O=C(NO)c1cnc(NC2(c3ccccn3)COC2)c(F)c1` [Compound I-56], the figure is 7.67 nM; as for `O=C(NO)c1cnc(OC2(c3ccccn3)COC2)c(F)c1` [III-2, 5-fluoro-N-hydroxy-6-{[3-(pyridin-2-yl)oxetan-3-yl]oxy}pyridine-3-carboxamide], 14.6 nM.
